Measured values taken from BindingDB's records for doi:10.1021/jm0011171 (Stockholm University, 2001).

Molecular target: T1, Dimer of Gag-Pol polyprotein [489-587] (Human immunodeficiency virus 1, UniProt P12497)
T1 construct: 489-587
Assay: Protease Inhibition Assay
Conditions: pH 5; 30 °C
Procedure: A fluorimetric assay was used to determine the effects of the inhibitors on HIV-1 protease. This assay used an internally quenched fluorescent peptide substrate. The measurements were performed in 96-well plates with a Fluoroscan plate reader. Excitation and emission wavelengths were 355 nm and 500 nm, respectively.

SMILES	Ki
O=C(N[C@H]1c2ccccc2C[C@H]1O)[C@H](CCc1ccccc1)[C@@H](O)[C@H](O)[C@@H](CCc1ccccc1)C(=O)N[C@H]1c2ccccc2C[C@H]1O [(2R,3R,4R,5R)-3,4-dihydroxy-N,N'-bis[(1S,2R)-2-hydroxy-2,3-dihydro-1H-inden-1-yl]-2,5-bis(2-phenylethyl)hexanediamide]	1.1 nM
O=C(N[C@H]1c2ccccc2C[C@H]1O)[C@H](OCc1ccccc1)[C@H](O)[C@@H](O)[C@@H](OCc1ccccc1)C(=O)N[C@H]1c2ccccc2C[C@H]1O [symmetric/asymmetric inhibitor 2]	0.6 nM
O=C(N[C@H]1c2ccccc2C[C@H]1O)[C@H](CCc1ccccc1)[C@H](O)[C@H](O)[C@@H](CCc1ccccc1)C(=O)N[C@H]1c2ccccc2C[C@H]1O [N1,N6 -Bis[(2R)-hydroxy-(1S)-indanyl]-(2R,3R,4S,5R)-3,4-dihydroxy-2,5-bis(2-phenylethyl)hexanediamide]	28 nM
